We go through five molecules from patent US20150329918A1, “JAGGED1 AS A MARKER AND THERAPEUTIC TARGET FOR BREAST CANCER BONE METASTASIS” (The Trustees of Princeton University, priority 2011, published 2015).

For series [1], the system named is pre-osteoclast Raw 264.7 cells. The series can be described thus: Osteoclastogenesis coculture assay (TRAP staining). The series is classed as cell-based, mouse. The following applies: 15-fold increase by JAG1 OE relative to controls; 1 μM MRK-003; FIG. 15A. The method, then: After seeding 5×10^4 control or JAG1 OE tumor cells/well into 12-well plates, murine pre-osteoclast Raw 264.7 (2×10^5 cells/well) or MOCP5 (5×10^5 cells/well) cells in media containing 30 ng/ml RANKL and DMSO or 1 μM MRK-003 were added the next day. Media were changed every 2 days. TRAP staining was performed on day 6 using a leukocyte acid phosphatase kit (Sigma). TRAP^+-multinucleated cells were scored as mature osteoclasts. The number of nuclei per osteoclast was quantified using TRAP-stained images. Mouse specific qRT-PCR primers were used to selectively quantify Raw264.7 osteoclast gene expression levels after 6 days of coculture (see Table 1 below).
For primary osteoclast coculture assays, bone marrow cells were flushed out from femora and tibiae of 4- to 6-week-old wild-type FVB mice and plated in basal culture medium overnight. The next day, nonadherent cells were added at 1×10^6/well to 12-well plates that were previously seeded with either control or JAG1 OE tumor cells supplemented with 50 ng/ml RANKL and 50 ng/ml M-CSF. Medium was changed every 3 days. TRAP staining and scoring were performed on days 10-12.

The test system of the next series is JAGGED1. Description: JAGGED1 mRNA and protein after TGFβ treatment of breast cancer cells in vitro. The following applies: several breast cancer cell lines; FIG. 5A. The series is classed as cell-based, human. The method, then: SDS lysis buffer (0.05 mM Tris-HCl, 50 mM BME, 2% SDS, 0.1% Bromophenol blue, 10% glycerol) was used to collect protein from cultured cells. Heat denatured protein was then equally loaded, separated on an SDS-page gel, transferred onto a pure nitrocellulose membrane (BioRad), and blocked with either 5% milk or 5% BSA. Primary antibodies for immunoblotting included: goat anti-JAGGED1 (1:1000 dilution, sc-6011, Santa Cruz), rabbit anti-phosho-SMAD2 (1:1000 dilution, Ser465/467, Cell Signaling), and mouse anti-β-actin (1:4000 dilution, Abcam) for loading control. Membranes were incubated with horseradish peroxidase (HRP)-conjugated anti-mouse secondary antibody (1:2000 dilution, GE Healthcare) or anti-rabbit secondary antibody (1:2000 dilution, GE Healthcare) for 1 h and chemiluminescence signals were detected by ECL substrate (GE Healthcare).
(§1) For in vitro experiments, GSI-IX (Calbiochem) and TGFβ Receptor 1 (EMD Biosciences 616451) were dissolved in DMSO. […] RNA and protein were collected and analyzed for JAGGED1 expression as described above. […]
RNA from in vitro cultured cells or flow cytometry-separated cells was collected in RLT lysis buffer and extracted with RNeasy mini kit (Qiagen). […] Quantitative RT-PCR was performed using Power Syber Green PCR Master Mix (Applied Biosystems) with the ABI Prism 7900HT thermocycler (Applied Biosystems) according to the manufacturer's protocol. […]

Series [2] has as its system SCP28 tumor cells cocultured with MC3T3-E1 osteoblasts. The series can be described thus: Osteoblast coculture tumor cell quantification by luciferase assay. The following applies: cocultured with MC3T3-E1; hIL-6 10 or 100 ng/ml; FIG. 14B. The series is classed as cell-based, human. The method, then: MC3T3-E1 cells were seeded at 2×10^5 cells/well in 12-well plates. After confluence was achieved, luciferase/GFP-labeled (GFP+) control and JAG1 OE cells were added at 1×10^4 cells/well in triplicate and treated with DMSO or 1 μM MRK-003. Media supplemented with appropriate drugs were changed every 2 days. After 6 days the coculture was subjected to a luciferase assay to selectively quantify the number of tumor cells. These values were normalized against luciferase quantification of 12-well plates seeded with tumor cells alone.
For transfection experiments, MC3T3-E1 osteoblasts were seeded at 2×10^5 cells/well in 12-well plates and grown to 95% confluence. […] Following 6 days, the coculture was lysed and subjected to a luciferase assay to selectively quantify the number of tumor cells. For gene expression analysis, RNA from cocultures was collected in RLT lysis buffer, extracted with RNeasy mini kit (Qiagen), and subjected to quantitative RT-PCR.
as §1

The test system of series [3] is SCP2 and 1833 tumor cells. Description: Proliferation of JAG1 KD tumor cells in culture or as mammary tumors. Set-up: species or system human. The protocol: (§2) For bone metastsis studies, 10^5 tumor cells were injected into the left cardiac ventricle of anesthetized female athymic Ncr-nu/nu or BALB/c mice. Development of metastases was monitored by BLI. Bioluminescence images were acquired with a Xenogen IVIS 200 Imaging System. Analysis was performed with Living Image software by measuring photon flux in the hindlimbs of mice. Data were normalized to the signal on day 7. Bone metastasis-free survival curves represent the time point at which each mouse developed bone metastasis by threshold BLI signals in the hindlimbs. For the orthotopic xenograft model, mammary fat pad injections and primary tumor size measurements were performed following the procedure described previously (Minn et al., 2005, which is incorporated herein by reference as if fully set forth).
After 48 hours viruses were collected, filtered and used to infect target cells in the presence of 5 μg/ml polybrene. The infected cells were selected with 1 μg/ml puromycin. For stable overexpression in the SCP28 human breast cancer cell line, human JAGGED1 cDNA was PCR amplified using the primer pair: 5′-[…]-3′ (Sense) [SEQ ID NO: 2] and 5′-[…]-3′ (Antisense) [SEQ ID NO: 3] and cloned into the retroviral expression vector pMSCVpuro using XhoI and EcoRI restriction sites (underlined=restriction sites, bold=human JAG1-specific sequences). […]

The subject of series [4] is SCP2 and 1833 bone metastasis. Description: Bone metastasis xenograft with JAG1 knockdown SCP2 and 1833 cells. It is filed as in vivo, mouse. The method, then:
as §2
After 48 hours viruses were collected, filtered and used to infect target cells in the presence of 5 μg/ml polybrene. The infected cells were selected with 1 μg/ml puromycin. […]
Hindlimb bones were excised from mice at the end point of each experiment, immediately after the last BLI time point. […] For quantitative analysis of lesion area, a 5× objective was used to focus on the tumor region of interest and images were acquired using the AxioCamICc3 camera set to an exposure of 100 ms. Lesions that were larger than the field of view were quantified by acquiring multiple images to encompass the entire lesion. The “spline” function of the AxioVision software was used to outline the region of interest and subsequently quantify the lesion area. Osteoclast number was assessed as multinucleated TRAP^+ cells along the tumor-bone interface and reported as number/mm of interface (Yin et al., 2003, which is incorporated herein by reference as if fully set forth). […]

Consider `C[C@H](NC(=O)Cc1cc(F)cc(F)c1)C(=O)N[C@H](C(=O)OC(C)(C)C)c1ccccc1` [GSI IX], for which the “TRAP+ osteoclasts in JAG1 OE cocultures” value in series [1] is given as “confirmed”. Turning to “TGFβ: Recombinant human TGFβ1 (R&D systems)”, in the series with JAGGED1, the “Jagged1 expression upon TGFβ stimulation” value is listed as “potently upregulated”. Consider “rIL-6: Recombinant human IL-6 (R&D systems)”, for which, in series [2], the “proliferative ability of control tumor cells” value is “significantly enhanced”. For the molecule “rJAG1: Recombinant rat JAGGED1/Fc chimera (R&D systems)”, the “TRAP+ osteoclasts in JAG1 OE cocultures” value in series [1] is recorded as “confirmed”.

B1: JAG1 KD: shRNA targeting CGTACAAGTAGTTCTGTAT of JAG1 (SEQ ID NO: 1; same as sense strand SEQ ID NO: 78, shRNA SEQ ID NO: 80) (nucleic acid)
chain: GATCTCCCGTACAAGTAGTTCTGTATTTCAAGAGAATACAGAACTACTTGTACGTTTTTGGAAAAGCTTTTCCAAAAACGTACAAGTAGTTCTGTATTCTCTTGAAATACAGAACTACTTGTACGGGA
Regarding B1, the “ability of tumor cells to proliferate in culture or as mammary tumors in mice” value in series [3] is given as “did not alter”. Moreover, in series [4] (SCP2 and 1833 with JAG1 shRNA), the “onset of bone metastasis” value was “delayed” and the survival of mice entry was “significantly extended”. Also, the “decrease in the number of TRAP+ osteoclasts along the bone tumor interface” value in series [4] (histological analysis) is 2 fold.
